# Experimental data taken from patent US9896445B2, “Heterocyclic inhibitors of ERK1 and ERK2 and their use in the treatment of cancer” (Asana Biosciences, LLC, priority 2015, dated 2018).
# Counter-ions that a name gives are not always drawn.
# Assays:
# [1] = molecular target: T1, ERK1 (Homo sapiens, UniProt P27361); assay: ERK1 HTRF (biochemical) assay; conditions: HTRF
# T1 construct: purchased Jubilant Biosys
# Procedure: ERK1 and ERK2 HTRF (Biochemical) Assays
# These assays employed a homogeneous time resolved fluorescence (HTRF) technique. […] The plate was incubated at room temperature for 60 min with shaking. […] The IC50 values (half maximal inhibitory concentration values) were subsequently determined using a sigmoidal dose-response curve (variable slope) in GraphPad Prism® 5 software.
# [2] = molecular target: T2, ERK2 (Homo sapiens, UniProt P28482); assay: ERK2 HTRF (biochemical) assay; conditions: HTRF
# T2 construct: purchased Jubilant Biosys
# Summary of the method: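 Readout was time-resolved FRET between europium anti-phospho-MBP and streptavidin-APC after a 60-min room-temperature kinase step. That step used ERK2 (25 nM in enzyme mix), biotinylated MBP peptide (1 uM) and ATP (24 uM) from the substrate mix, in pH 7.5 Tris buffer.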
# T1 sequence (P27361 whole entry): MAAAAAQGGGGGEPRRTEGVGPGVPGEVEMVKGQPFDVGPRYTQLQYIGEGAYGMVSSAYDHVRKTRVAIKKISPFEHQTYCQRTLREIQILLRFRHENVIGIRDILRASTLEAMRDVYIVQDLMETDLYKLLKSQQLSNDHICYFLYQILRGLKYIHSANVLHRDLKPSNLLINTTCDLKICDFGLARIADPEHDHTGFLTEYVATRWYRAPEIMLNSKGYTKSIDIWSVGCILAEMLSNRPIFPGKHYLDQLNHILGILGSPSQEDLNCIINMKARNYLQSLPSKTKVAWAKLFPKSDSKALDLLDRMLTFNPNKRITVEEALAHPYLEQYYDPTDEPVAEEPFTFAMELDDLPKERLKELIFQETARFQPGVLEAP
# T2 sequence (P28482 whole entry): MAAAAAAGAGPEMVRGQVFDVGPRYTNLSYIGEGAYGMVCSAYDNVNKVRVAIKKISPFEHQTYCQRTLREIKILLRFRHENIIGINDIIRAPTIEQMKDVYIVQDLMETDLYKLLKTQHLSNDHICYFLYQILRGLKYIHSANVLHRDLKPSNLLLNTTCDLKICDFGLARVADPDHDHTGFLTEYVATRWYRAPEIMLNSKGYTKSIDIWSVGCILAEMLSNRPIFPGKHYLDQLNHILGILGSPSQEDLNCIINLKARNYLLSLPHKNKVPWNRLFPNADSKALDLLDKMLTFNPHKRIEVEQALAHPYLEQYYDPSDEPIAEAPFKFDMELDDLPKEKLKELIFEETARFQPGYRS
SMILES,IC50 [1],IC50 [2]
"O=C(NC(CO)c1ccccc1)c1ccn(-c2ccnc(NC3CCOC3)c2)c1 (stereo not drawn) [Compound 189, N-(2-hydroxy-1-phenylethyl)-1-(2-((tetrahydrofuran-3-yl)amino)pyridin-4-yl)-1H-pyrrole-3-carboxamide]",100 to 500 nM,500 to 2500 nM
"Cc1cnc(NCC2CCCO2)nc1-n1ccc(C(=O)N[C@H](CO)c2cccc(Cl)c2)c1 (stereo partly drawn) [Compound 190, N-((S)-1-(3-chlorophenyl)-2-hydroxyethyl)-1-(5-methyl-2-(((tetrahydrofuran-2-yl)methyl)-amino)pyrimidin-4-yl)-1H-pyrrole-3-carboxamide]",< 50 nM,50 to 100 nM
"Cc1cnc(NCc2cccnc2)cc1-n1ccc(C(=O)NC(CO)c2ccc(F)c(Cl)c2)c1 (stereo not drawn) [Compound 193, N-(1-(3-chloro-4-fluorophenyl)-2-hydroxyethyl)-1-(5-methyl-2-((pyridin-3-ylmethyl)-amino)pyridin-4-yl)-1H-pyrrole-3-carboxamide]",100 to 500 nM,100 to 500 nM
"Cc1cnc(Nc2ccc(F)c(C(=O)N(C)C)c2)nc1-n1ccc(C(=O)NC(CO)c2cccc(Cl)c2)c1 (stereo not drawn) [Compound 194, N-(1-(3-chloro-phenyl)-2-hydroxyethyl)-1-(2-((3-(dimethyl-carbamoyl)-4-fluorophenyl)amino)-5-methyl-pyrimidin-4-yl)-1H-pyrrole-3-carboxamide]",< 50 nM,≤ 50 nM
"Cc1cnc(NC2CCCCC2)nc1-n1ccc(C(=O)NC(CO)c2cccc(Cl)c2)c1 (stereo not drawn) [Compound 195, N-(1-(3-chlorophenyl)-2-hydroxyethyl)-1-(2-(cyclohexylamino)-5-methylpyrimidin-4-yl)-1H-pyrrole-3-carboxamide]",< 50 nM,≤ 50 nM
"CNC(=O)c1ccc(Nc2ncc(C)c(-n3ccc(C(=O)NC(CO)c4cccc(Cl)c4)c3)n2)cc1 (stereo not drawn) [Compound 196, N-(1-(3-chloro-phenyl)-2-hydroxy-ethyl)-1-(5-methyl-2-((4-(methyl-carbamoyl)phenyl)amino)pyrimidin-4-yl)-1H-pyrrole-3-carboxamide]",< 50 nM,≤ 50 nM
"CCC(C)Nc1ncc(C)c(-n2ccc(C(=O)N[C@H](CO)c3ccc(F)c(Cl)c3)c2)n1 (stereo partly drawn) [Compound 197, 1-(2-(sec-butylamino)-5-methylpyrimidin-4-yl)-N-((S)-1-(3-chloro-4-fluoro-phenyl)-2-hydroxy-ethyl)-1H-pyrrole-3-carboxamide]",< 50 nM,≤ 50 nM
"Cc1cnc(Nc2ccc3c(c2)CC(=O)N3)nc1-n1ccc(C(=O)NC(CO)c2cccc(Cl)c2)c1 (stereo not drawn) [Compound 198, N-(1-(3-chloro-phenyl)-2-hydroxy-ethyl)-1-(5-methyl-2-((2-oxoindolin-5-yl)amino)pyrimidin-4-yl)-1H-pyrrole-3-carboxamide]",< 50 nM,≤ 50 nM
"Cc1cnc(NC2CCCN(C)C2)nc1-n1ccc(C(=O)NC(CO)c2cccc(Cl)c2)c1 (stereo not drawn) [Compound 199, N-(1-(3-chloro-phenyl)-2-hydroxy-ethyl)-1-(5-methyl-2-((1-methyl-piperidin-3-yl)-amino)pyrimidin-4-yl)-1H-pyrrole-3-carboxamide]",< 50 nM,≤ 50 nM
"Cc1cnc(NC2CCCCC2O)nc1-n1ccc(C(=O)NC(CO)c2ccc(F)c(Cl)c2)c1 (stereo not drawn) [Compound 202, N-(1-(3-chloro-4-fluorophenyl)-2-hydroxyethyl)-1-(2-((2-hydroxy-cyclohexyl)amino)-5-methylpyrimidin-4-yl)-1H-pyrrole-3-carboxamide]",50 to 100 nM,50 to 100 nM
"Cc1cnc(NC2(CO)CC2)nc1-n1ccc(C(=O)NC(CO)c2ccc(F)c(Cl)c2)c1 (stereo not drawn) [Compound 203, N-(1-(3-chloro-4-fluorophenyl)-2-hydroxyethyl)-1-(2-((1-(hydroxy-methyl)cyclopropyl)amino)-5-methyl-pyrimidin-4-yl)-1H-pyrrole-3-carboxamide]",100 to 500 nM,100 to 500 nM
"Cc1cnc(N[C@H]2CCOC2)nc1-n1ccc(C(=O)NC(CO)c2ccc(F)cc2)c1 (stereo partly drawn) [Compound 204, N-(1-(4-fluoro-phenyl)-2-hydroxy-ethyl)-1-(5-methyl-2-(((S)-tetrahydro-furan-3-yl)amino)-pyrimidin-4-yl)-1H-pyrrole-3-carboxamide]",50 to 100 nM,50 to 100 nM
"Cc1cnc(Nc2ccc(N3CCOCC3)cc2)nc1-n1ccc(C(=O)NC(CO)c2cccc(Cl)c2)c1 (stereo not drawn) [Compound 205, N-(1-(3-chlorophenyl)-2-hydroxyethyl)-1-(5-methyl-2-((4-morpholinophenyl)amino)pyrimidin-4-yl)-1H-pyrrole-3-carboxamide]",< 50 nM,≤ 50 nM
"NCC(NC(=O)c1ccn(-c2ccnc(Nc3ccc(F)cc3)c2)c1)c1ccccc1 (stereo not drawn) [Compound 206, N-(2-amino-1-phenylethyl)-1-(2-((4-fluorophenyl)-amino)pyridin-4-yl)-1H-pyrrole-3-carboxamide]",< 50 nM,≤ 50 nM
"Cc1cccc([C@@H](CO)NC(=O)c2ccn(-c3nc(N[C@H]4CCOC4)ncc3C)c2)n1 [Compound 207, N-((S)-2-hydroxy-1-(6-methylpyridin-2-yl)ethyl)-1-(5-methyl-2-(((S)-tetrahydrofuran-3-yl)amino)pyrimidin-4-yl)-1H-pyrrole-3-carboxamide]",< 50 nM,≤ 50 nM
"Cc1cnc(NC2CCN(C)C2)nc1-n1ccc(C(=O)N[C@H](CO)c2cccc(Cl)c2)c1 (stereo partly drawn) [Compound 208, N-((S)-1-(3-chlorophenyl)-2-hydroxyethyl)-1-(5-methyl-2-((1-methylpyrrolidin-3-yl)amino)pyrimidin-4-yl)-1H-pyrrole-3-carboxamide]",< 50 nM,≤ 50 nM
"Cc1cnc(Nc2ccc3[nH]cc(C4=CCNCC4)c3c2)nc1-n1ccc(C(=O)NC(CO)c2cccc(Cl)c2)c1 (stereo not drawn) [Compound 209, N-(1-(3-chlorophenyl)-2-hydroxyethyl)-1-(5-methyl-2-((3-(1,2,3,6-tetrahydro-pyridin-4-yl)-1H-indol-5-yl)amino)-pyrimidin-4-yl)-1H-pyrrole-3-carboxamide hydrochloride]",< 50 nM,≤ 50 nM
"Cc1cnc(N[C@H]2CCOC2)nc1-n1ccc(C(=O)N(C)C(CO)c2cccc(Cl)c2)c1 (stereo partly drawn) [Compound 212, N-(1-(3-chlorophenyl)-2-hydroxyethyl)-N-methyl-1-(5-methyl-2-(((S)-tetrahydrofuran-3-yl)amino)-pyrimidin-4-yl)-1H-pyrrole-3-carboxamide]",< 50 nM,≤ 50 nM
"Cc1cnc(Nc2ccc(F)c(N3CCNCC3)c2)nc1-n1ccc(C(=O)NC(CO)c2cccc(Cl)c2)c1 (stereo not drawn) [Compound 213, N-(1-(3-chlorophenyl)-2-hydroxyethyl)-1-(2-((4-fluoro-3-(piperazin-1-yl)phenyl)amino)-5-methylpyrimidin-4-yl)-1H-pyrrole-3-carboxamide]",< 50 nM,≤ 50 nM
"Cc1cnc(NC2CCNCC2)nc1-n1cnc(C(=O)NC(CO)c2cccc(Cl)c2)c1 (stereo not drawn) [Compound 214, N-(1-(3-chlorophenyl)-2-hydroxyethyl)-1-(5-methyl-2-(piperidin-4-ylamino)pyrimidin-4-yl)-1H-imidazole-4-carboxamide]",< 50 nM,≤ 50 nM
"Cc1cnc(Nc2ccc(C3CCNCC3)cc2)nc1-n1ccc(C(=O)NC(CO)c2cccc(Cl)c2)c1 (stereo not drawn) [Compound 215, N-(1-(3-chlorophenyl)-2-hydroxyethyl)-1-(5-methyl-2-((4-(piperidin-4-yl)phenyl)amino)pyrimidin-4-yl)-1H-pyrrole-3-carboxamide]",50 to 100 nM,≤ 50 nM
